Assay results from patent US20230278972A1, “SUBSTITUTED HALOALKYL SULFONANILIDE HERBICIDES” (FMC Corporation, priority 2020, published 2023).

What was measured:
Format in all cases: in vivo
[1] = tested on: blackgrass (Alopecurus myosuroides); experiment: Test A1 preemergence, blackgrass
Method in brief: (§1)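 Test compounds were formulated in a non-phytotoxic solvent mixture containing a surfactant. For preemergence, seeds sown in a loam soil–sand blend received a directed soil spray. For postemergence, potted plants in the same soil, 2 to 10 cm tall at the one- to two-leaf stage, were sprayed.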

corn (Zea mays) [2] = experiment: Test A1 preemergence, corn
Method in brief: (§2)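 Seeds were first planted into a blend of loam soil and sand and given a preemergence directed soil spray. In parallel, pots of the same soil were sown for postemergence application once plants reached 2 to 10 cm and the one- to two-leaf stage. Both used surfactant-containing non-phytotoxic solvent formulations.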

[3] = tested on: Foxtail, Giant (giant foxtail, Setaria faberi); experiment: Test A1 preemergence, Foxtail, Giant
Method in brief: as §1

[4] = tested on: goosegrass (Eleusine indica); experiment: Test A1 preemergence, goosegrass
Method in brief: as §1

kochia (Bassia scoparia) [5] = experiment: Test A1 preemergence, kochia
Method in brief: as §1

[6] = tested on: Oat, Wild (wild oat, Avena fatua); experiment: Test A1 preemergence, Oat, Wild
Method in brief: as §1

[7] = tested on: Pigweed, Palmer (palmer amaranth, palmer pigweed, Amaranthus palmeri); experiment: Test A1 preemergence, Pigweed, Palmer
Method in brief: as §1

[8] = tested on: ragweed (common ragweed, Ambrosia artemisiifolia); experiment: Test A1 preemergence, ragweed
Method in brief: as §1

[9] = tested on: Ryegrass, Italian (Italian ryegrass, Lolium multiflorum); experiment: Test A1 preemergence, Ryegrass, Italian
Method in brief: as §1

soybean (Glycine max) [10] = experiment: Test A1 preemergence, soybean
Method in brief: as §1

[11] = tested on: wheat (Triticum aestivum); experiment: Test A1 preemergence, wheat
Method in brief: as §1

[12] = tested on: blackgrass (Alopecurus myosuroides); experiment: Test A1 postemergence, blackgrass; conditions: Postemergence, 0 to 100 scale (0 no effect, 100 complete control)
Method in brief: as §2

corn (Zea mays) [13] = experiment: Test A1 postemergence, corn; conditions: Postemergence
Method in brief: as §1

[14] = tested on: Foxtail, Giant (giant foxtail, Setaria faberi); experiment: Test A1 postemergence, Foxtail, Giant; conditions: Postemergence
Method in brief: as §2

[15] = tested on: goosegrass (Eleusine indica); experiment: Test A1 postemergence, goosegrass; conditions: Postemergence
Method in brief: as §2

kochia (Bassia scoparia) [16] = experiment: Test A1 postemergence, kochia; conditions: Postemergence
Method in brief: as §2

[17] = tested on: Oat, Wild (wild oat, Avena fatua); experiment: Test A1 postemergence, Oat, Wild; conditions: Postemergence
Method in brief: as §2

[18] = tested on: Pigweed, Palmer (palmer amaranth, palmer pigweed, Amaranthus palmeri); experiment: Test A1 postemergence, Pigweed, Palmer; conditions: Postemergence
Method in brief: as §2

[19] = tested on: ragweed (common ragweed, Ambrosia artemisiifolia); experiment: Test A1 postemergence, ragweed; conditions: Postemergence
Method in brief: as §2

[20] = tested on: Ryegrass, Italian (Italian ryegrass, Lolium multiflorum); experiment: Test A1 postemergence, Ryegrass, Italian; conditions: Postemergence
Method in brief: as §2

soybean (Glycine max) [21] = experiment: Test A1 postemergence, soybean; conditions: Postemergence
Method in brief: as §2

[22] = tested on: wheat (Triticum aestivum); experiment: Test A1 postemergence, wheat; conditions: Postemergence
Method in brief: as §2

[23] = tested on: galium (catchweed bedstraw, Galium aparine); experiment: Test A1 postemergence, galium; conditions: Postemergence
Method in brief: as §2

[24] = tested on: horseweed (Erigeron canadensis); experiment: Test A1 postemergence, horseweed; conditions: Postemergence
Source text: Seeds of plant species selected from, blackgrass (Alopecurus myosuroides), corn (Zea mays), Foxtail, Giant (giant foxtail, Setaria faberi), goosegrass (Eleusine indica), kochia (Bassia scoparia), Oat, Wild (wild oat, Avena fatua), Pigweed, Palmer (palmer amaranth, palmer pigweed, Amaranthus palmeri), ragweed (common ragweed, Ambrosia artemisiifolia), Ryegrass, Italian (Italian ryegrass, Lolium multiflorum), soybean (Glycine max), and wheat (Triticum aestivum) were planted into a blend of loam soil and sand and treated preemergence with a directed soil spray using test chemicals formulated in a non-phytotoxic solvent mixture which included a surfactant. At the same time, plants selected from these crop and weed species and also galium (catchweed bedstraw, Galium aparine) and horseweed (Erigeron canadensis) were planted in pots containing the same blend of loam soil and sand and treated with postemergence applications of test chemicals formulated in the same manner. Plants ranged in height from 2 to 10 cm and were in the one- to two-leaf stage for the postemergence treatment. […] A dash (-) response means no test result.

[25] = tested on: barnyardgrass (Echinochloa crus-galli); experiment: Test B1 flooded paddy test, barnyardgrass; conditions: 250 g ai/ha, Flood, applied to paddy water, 2-leaf stage, visually evaluated after 10 to 14 days
Source text: (§3) A dash (-) response means no test result.

[26] = tested on: ducksalad (Heteranthera limosa); experiment: Test B1 flooded paddy test, ducksalad; conditions: 250 g ai/ha, Flood, applied to paddy water, 2-leaf stage, visually evaluated after 10 to 14 days
Source text: as §3

rice (Oryza sativa) = experiment: Test B1 flooded paddy test, rice; conditions: 250 g ai/ha, Flood, applied to paddy water, 2-leaf stage, visually evaluated after 10 to 14 days
Source text: as §3

[27] = 31 g ai/ha, 0 to 100 scale (0 no effect, 100 complete control)
[28] = 125 g ai/ha, 0 to 100 scale, 0 no effect, 100 complete control
[29] = 31 g ai/ha, 0 to 100 scale (0 no effect, 100 complete control), 10 days

Cc1cc(C)c(N(COC(=O)N(C)C)S(=O)(=O)C(F)(F)F)cc1C1=NOC2CCCC12 (stereo not drawn) [Compound 317]
30: Plant response rating, Ducksalad (0 to 100 scale, 0 is no effect, 100 is complete control) [26]
10: Plant response rating, Ragweed [19, 29]
0: Plant response rating, Blackgrass [1, 27] | Plant response rating, Blackgrass [1, 28] | Plant response rating, Corn (corn (Zea mays) [2]; [27]) | Plant response rating, Corn (corn (Zea mays) [2]; [28]) | Plant response rating, Foxtail, Giant [3, 27] | Plant response rating, Foxtail, Giant [3, 28] | Plant response rating, Goosegrass [4, 27] | Plant response rating, Goosegrass [4, 28] | Plant response rating, Kochia (kochia (Bassia scoparia) [5]; [27]) | Plant response rating, Kochia (kochia (Bassia scoparia) [5]; [28]) | Plant response rating, Oat, Wild [6, 27] | Plant response rating, Oat, Wild [6, 28] | Plant response rating, Pigweed, Palmer [7, 27] | Plant response rating, Pigweed, Palmer [7, 28] | Plant response rating, Ragweed [8, 27] | Plant response rating, Ragweed [8, 28] | Plant response rating, Ryegrass, Italian [9, 27] | Plant response rating, Ryegrass, Italian [9, 28] | Plant response rating, Soybean (soybean (Glycine max) [10]; [27]) | Plant response rating, Soybean (soybean (Glycine max) [10]; [28]) | Plant response rating, Wheat [11, 27] | Plant response rating, Wheat [11, 28] | Plant response rating, Blackgrass ([12]; 31 g ai/ha, 10 days) | Plant response rating, Blackgrass ([12]; 125 g ai/ha) | Plant response rating, Corn (corn (Zea mays) [13]; [29]) | Plant response rating, Corn (corn (Zea mays) [13]; 125 g ai/ha, 0 to 100 scale) | Plant response rating, Foxtail, Giant [14, 29] | Plant response rating, Foxtail, Giant ([14]; 125 g ai/ha, 0 to 100 scale) | Plant response rating, Goosegrass [15, 29] | Plant response rating, Goosegrass ([15]; 125 g ai/ha, 0 to 100 scale) | Plant response rating, Kochia (kochia (Bassia scoparia) [16]; [29]) | Plant response rating, Kochia (kochia (Bassia scoparia) [16]; 125 g ai/ha, 0 to 100 scale) | Plant response rating, Oat, Wild [17, 29] | Plant response rating, Oat, Wild ([17]; 125 g ai/ha, 0 to 100 scale) | Plant response rating, Pigweed, Palmer [18, 29] | Plant response rating, Pigweed, Palmer ([18]; 125 g ai/ha, 0 to 100 scale) | Plant response rating, Ragweed ([19]; 125 g ai/ha, 0 to 100 scale) | Plant response rating, Ryegrass, Italian [20, 29] | Plant response rating, Ryegrass, Italian ([20]; 125 g ai/ha, 0 to 100 scale) | Plant response rating, Soybean (soybean (Glycine max) [21]; [29]) | Plant response rating, Soybean (soybean (Glycine max) [21]; 125 g ai/ha, 0 to 100 scale) | Plant response rating, Wheat [22, 29] | Plant response rating, Wheat ([22]; 125 g ai/ha, 0 to 100 scale) | Plant response rating, Galium [23, 29] | Plant response rating, Galium ([23]; 125 g ai/ha, 0 to 100 scale) | Plant response rating, Horseweed [24, 29] | Plant response rating, Horseweed ([24]; 125 g ai/ha, 0 to 100 scale) | Plant response rating, Barnyardgrass (0 to 100 scale, 0 is no effect, 100 is complete control) [25] | Plant response rating, Rice (0 to 100 scale, 0 is no effect, 100 is complete control) (rice (Oryza sativa))

Cc1cc(C)c(N(COC(=O)C(C)(C)C)S(=O)(=O)C(F)(F)F)cc1C1=NOC2OCCC12 (stereo not drawn) [Compound 352]
70: Plant response rating, Pigweed, Palmer [7, 27] | Plant response rating, Foxtail, Giant ([14]; 125 g ai/ha, 0 to 100 scale) | Plant response rating, Kochia (kochia (Bassia scoparia) [16]; 125 g ai/ha, 0 to 100 scale) | Plant response rating, Ragweed [19, 29]
50: Plant response rating, Corn (corn (Zea mays) [2]; [28]) | Plant response rating, Kochia (kochia (Bassia scoparia) [16]; [29]) | Plant response rating, Wheat ([22]; 125 g ai/ha, 0 to 100 scale)
100: Plant response rating, Foxtail, Giant [3, 28] | Plant response rating, Goosegrass [4, 28] | Plant response rating, Kochia (kochia (Bassia scoparia) [5]; [28]) | Plant response rating, Pigweed, Palmer [7, 28] | Plant response rating, Ryegrass, Italian [9, 28] | Plant response rating, Galium [23, 29] | Plant response rating, Galium ([23]; 125 g ai/ha, 0 to 100 scale) | Plant response rating, Horseweed ([24]; 125 g ai/ha, 0 to 100 scale)
20: Plant response rating, Blackgrass [1, 27] | Plant response rating, Oat, Wild [6, 28] | Plant response rating, Ryegrass, Italian [9, 27] | Plant response rating, Wheat [11, 28] | Plant response rating, Blackgrass ([12]; 125 g ai/ha) | Plant response rating, Corn (corn (Zea mays) [13]; [29]) | Plant response rating, Foxtail, Giant [14, 29] | Plant response rating, Oat, Wild ([17]; 125 g ai/ha, 0 to 100 scale) | Plant response rating, Pigweed, Palmer [18, 29] | Plant response rating, Soybean (soybean (Glycine max) [21]; [29])
80: Plant response rating, Corn (corn (Zea mays) [13]; 125 g ai/ha, 0 to 100 scale) | Plant response rating, Goosegrass [15, 29] | Plant response rating, Horseweed [24, 29]
10: Plant response rating, Corn (corn (Zea mays) [2]; [27]) | Plant response rating, Wheat [11, 27]
40: Plant response rating, Blackgrass [1, 28] | Plant response rating, Soybean (soybean (Glycine max) [10]; [28])
90: Plant response rating, Goosegrass [4, 27] | Plant response rating, Ragweed [8, 28] | Plant response rating, Goosegrass ([15]; 125 g ai/ha, 0 to 100 scale) | Plant response rating, Ragweed ([19]; 125 g ai/ha, 0 to 100 scale) | Plant response rating, Ryegrass, Italian ([20]; 125 g ai/ha, 0 to 100 scale) | Plant response rating, Barnyardgrass (0 to 100 scale, 0 is no effect, 100 is complete control) [25]
35: Plant response rating, Rice (0 to 100 scale, 0 is no effect, 100 is complete control) (rice (Oryza sativa))
0: Plant response rating, Oat, Wild [6, 27] | Plant response rating, Blackgrass ([12]; 31 g ai/ha, 10 days) | Plant response rating, Oat, Wild [17, 29] | Plant response rating, Ryegrass, Italian [20, 29] | Plant response rating, Wheat [22, 29]
60: Plant response rating, Ragweed [8, 27] | Plant response rating, Pigweed, Palmer ([18]; 125 g ai/ha, 0 to 100 scale) | Plant response rating, Soybean (soybean (Glycine max) [21]; 125 g ai/ha, 0 to 100 scale)
65: Plant response rating, Ducksalad (0 to 100 scale, 0 is no effect, 100 is complete control) [26]
30: Plant response rating, Foxtail, Giant [3, 27] | Plant response rating, Kochia (kochia (Bassia scoparia) [5]; [27]) | Plant response rating, Soybean (soybean (Glycine max) [10]; [27])
